Molecules are shown by their SMILES. Where only a bound is given, the exact number is not on record here.

The assay has as its system P. falciparum (NF54 or 3D7 strain) in infected human erythrocytes. The assay can be described thus: Assay for P. falciparum proliferation in infected human blood cells (SYBR Green). The assay is classed as cell-based. Particulars: Plasmodium falciparum, Erythrocyte; NF54 or 3D7 strain, 72 hours, SYBR Green fluorescence; read-out: EC50 (nM), inhibitory efficacy in delaying P. falciparum proliferation in infected human blood cells. The procedure:
Assay for P. falciparum Proliferation in Infected Human Blood Cells
Compounds of the invention can be assayed to measure their capacity to inhibit proliferation of P. falciparum parasitemia in infected red blood cells. This parasite proliferation assay measures the increase in parasite DNA content using a DNA intercalating dye, SYBR Green® (INVITROGEN®) which has a high affinity for double stranded DNA.
NF54 or 3D7 P. falciparum strain is grown in complete culturing media until parasitemia reaches 3% to 8% with O+ human erythrocytes. […] 20 μl of screening media is dispensed into 384 well assay plates. 50 nl of compounds of the invention (in DMSO), including antimalarial controls (mefloquine, pyrimethamine and artemisinin), are then transferred into the assay plates, as well as DMSO alone to serve as a negative control for inhibition. Then 30 μl of a suspension of a NF54 or 3D7 P. falciparum infected erythrocytes in screening media is dispensed into the assay plates such that the final hematocrit is 2.5% with a final parasitemia of 0.3%. The plates are placed in a 37° C. incubator for 72 hours in a low oxygen environment containing 93% N2, 4% CO2, and 3% O2 gas mixture. 10 μl of lysis buffer (saponin, triton-X, EDTA) containing a 10× solution of SYBR Green I® in RPMI media is dispensed into the plates. The plates are lidded and kept at room temperature overnight for the lysis of the infected red blood cells. The fluorescence intensity is measured (excitation […], emission 530 nm) using the Envision™ system (Perkin Elmer). The percentage inhibition of 50%, […], is calculated for each compound.
In the case of `CN(C(=O)c1ccn2ncc(-c3ccc(C(F)(F)F)cn3)c2c1)c1ccc(C#N)cc1` [Example 24, N-(4-cyanophenyl)-N-methyl-3-(5-(trifluoromethyl)109yridine-2-yl)pyrazolo[1,5-a]pyridine-5-carboxamide], the EC50 stood at 10 nM. The result for `CN(C(=O)c1ccn2ncc(-c3cnc4[nH]ccc4c3)c2c1)c1ccc(S(C)(=O)=O)cn1` [Example 58, N-methyl-N-(5-(methylsulfonyl)pyridin-2-yl)-3-(1H-pyrrolo[2,3-b]pyridin-5-yl)pyrazolo[1,5-a]pyridine-5-carboxamide] reads 30 nM; that for `Cc1cncc(N(C)C(=O)c2ccn3ncc(-c4ccc(C(F)(F)F)cc4)c3c2)c1` [Example 14, N-methyl-N-(5-methylpyridin-3-yl)-3-(4-(trifluoromethyl)phenyl)pyrazolo[1,5-a]pyridine-5-carboxamide], 134 nM. The result for `CN(C(=O)c1ccc(C(C)(F)F)nc1)c1ccn2ncc(-c3ccc(C(F)(F)F)cc3)c2c1` [Example 48, 6-(1,1-difluoroethyl)-N-methyl-N-(3-(4-(trifluoromethyl)phenyl)pyrazolo[1,5-a]pyridin-5-yl)nicotinamide] reads 288 nM; that for `CN(C)C(=O)c1cc(-c2cnn3ccc(C(=O)N(C)c4ccc(C#N)cn4)cc23)cnc1N` [Example 87, 3-(6-amino-5-(dimethylcarbamoyl)pyridin-3-yl)-N-(5-cyanopyridin-2-yl)-N-methylpyrazolo[1,5-a]pyridine-5-carboxamide], 41 nM; that for `CN(C(=O)c1ccn2ncc(-c3ccc(C(N)=O)cn3)c2c1)c1ccc(C#N)cn1` [Example 61, 3-(5-carbamoylpyridin-2-yl)-N-(5-cyanopyridin-2-yl)-N-methylpyrazolo[1,5-a]pyridine-5-carboxamide], 20 nM.

Take `Cc1ccc(N(C)C(=O)c2ccn3ncc(-c4ccc(C(N)=O)cc4)c3c2)nc1` [Example 63, 3-(4-carbamoylphenyl)-N-methyl-N-(5-methylpyridin-2-yl)pyrazolo[1,5-a]pyridine-5-carboxamide]: the EC50 came out at 6 nM. As for `CN(C(=O)c1ccn2ncc(-c3cnc(N)c(F)c3)c2c1)c1ccc(C#N)cc1` [Example 79, 3-(6-amino-5-fluoropyridin-3-yl)-N-(4-cyanophenyl)-N-methylpyrazolo[1,5-a]pyridine-5-carboxamide], the EC50 amounted to 7 nM. For the molecule `CN(C(=O)c1ccn2ncc(-c3ccc(NC(=O)[C@@H](N)C4CCCCC4)cc3)c2c1)c1ccc(C#N)cc1` [Example 46, (S)-3-(4-(2-amino-2-cyclohexylacetamido)phenyl)-N-(4-cyanophenyl)-N-methylpyrazolo[1,5-a]pyridine-5-carboxamide], the EC50 is 18 nM. As for `Cc1ccc(N(C)C(=O)c2ccn3ncc(-c4ccc(C(F)(F)F)cc4)c3c2)nc1` [Example 5, N-methyl-N-(5-methylpyridin-2-yl)-3-(4-(trifluoromethyl)phenyl)pyrazolo[1,5-a]pyridine-5-carboxamide], the figure is 88 nM; as for `CN(Cc1ccn2ncc(-c3ccc(C(F)(F)F)cc3)c2c1)c1ccc(Cl)cc1` [Example 6, 4-chloro-N-methyl-N-((3-(4-(trifluoromethyl)phenyl)pyrazolo[1,5-a]pyridine-5-yl)methyl)aniline], 284 nM. With `CN(C(=O)c1ccn2ncc(-c3cnc(N)c(C(F)(F)F)c3)c2c1)c1ccc(C#N)cn1` [Example 84, 3-(6-amino-5-(trifluoromethyl)pyridin-3-yl)-N-(5-cyanopyridin-2-yl)-N-methylpyrazolo[1,5-a]pyridine-5-carboxamide], the EC50 stood at 6 nM.

As for `CN(C(=O)c1ccc(C2CC2)cc1)c1ccn2ncc(-c3ccc(C(F)(F)F)cc3)c2c1` [Example 50, 4-cyclopropyl-N-methyl-N-(3-(4-(trifluoromethyl)phenyl)pyrazolo[1,5-a]pyridin-5-yl)benzamide], the EC50 stood at 3850 nM. Regarding `CN(Cc1ccn2ncc(-c3ccc(C(F)(F)F)cc3)c2c1)c1ccc(F)cc1` [Example 2, 4-fluoro-N-methyl-N-((3-(4-(trifluoromethyl)phenyl)pyrazolo[1,5-a]pyridine-5-yl)methyl)aniline], the EC50 was 342 nM. As to `CN(C(=O)c1ccn2ncc(-c3ccc(-c4ccn[nH]4)cc3)c2c1)c1ccc(C#N)cc1` [Example 23, 3-(4-(1H-pyrazol-5-yl)phenyl)-N-(4-cyanophenyl)-N-methylpyrazolo[1,5-a]pyridine-5-carboxamide], the EC50 is 2 nM. With `CNC(=O)c1ccc(-c2cnn3ccc(C(=O)N(c4ccc(C#N)cn4)C4COC4)cc23)cc1` [Example 76, N-(5-cyanopyridin-2-yl)-3-(4-(methylcarbamoyl)phenyl)-N-(oxetan-3-yl)pyrazolo[1,5-a]pyridine-5-carboxamide], the EC50 came out at 82 nM.

As to `CN(C)CCN(C(=O)c1ccn2ncc(-c3ccc(C(F)(F)F)cc3)c2c1)c1ccc(C#N)cc1` [Example 10, N-(4-cyanophenyl)-N-(2-(dimethylamino)ethyl)-3-(4-(trifluoromethyl)phenyl)pyrazolo[1,5-a]pyridine-5-carboxamide], the EC50 turned out to be 7 nM. As for `CN(C(=O)c1ccn2ncc(-c3cnc(N)c(C#N)c3)c2c1)c1ccc(C#N)cn1` [Example 85, 3-(6-amino-5-cyanopyridin-3-yl)-N-(5-cyanopyridin-2-yl)-N-methylpyrazolo[1,5-a]pyridine-5-carboxamide], the figure is 16 nM; as for `COc1cc(-c2cnn3ccc(C(=O)N(C)c4ccc(C#N)cn4)cc23)cnc1N` [Example 88, 3-(6-amino-5-methoxypyridin-3-yl)-N-(5-cyanopyridin-2-yl)-N-methylpyrazolo[1,5-a]pyridine-5-carboxamide], 83 nM; as for `CN(C(=O)Nc1ccc(F)cc1)c1ccn2ncc(-c3ccc(C(F)(F)F)cc3)c2c1` [Example 47, 3-(4-fluorophenyl)-1-methyl-1-(3-(4-(trifluoromethyl)phenyl)pyrazolo[1,5-a]pyridin-5-yl)urea], above 9000 nM. The result for `CN(C(=O)c1ccc(F)cc1)c1ccn2ncc(-c3ccc(C(F)(F)F)cc3)c2c1` [Example 29, 4-fluoro-N-methyl-N-(3-(4-(trifluoromethyl)phenyl)pyrazolo[1,5-a]pyridine-5-yl)benzamide] reads 150 nM. As for `CC(=O)Nc1ccc(-c2cnn3ccc(C(=O)N(C)c4ccc(C#N)cc4)cc23)cn1` [Example 18, 3-(6-acetamidopyridin-3-yl)-N-(4-cyanophenyl)-N-methylpyrazolo[1,5-a]pyridine-5-carboxamide], the EC50 was 3 nM. Take `CN(C(=O)c1ccn2ncc(-c3cnc(N)c(Cl)c3)c2c1)c1ccc(C#N)cn1` [Example 86, 3-(6-amino-5-chloropyridin-3-yl)-N-(5-cyanopyridin-2-yl)-N-methylpyrazolo[1,5-a]pyridine-5-carboxamide]: the EC50 came to 10 nM. On to `CN(C(=O)c1ccn2ncc(-c3ccc(N)cc3)c2c1)c1ccc(C#N)cc1` [Example 42, 3-(4-aminophenyl)-N-(4-cyanophenyl)-N-methylpyrazolo[1,5-a]pyridine-5-carboxamide], for which the EC50 turned out to be 18 nM. As for `CN(C(=O)c1ccn2ncc(-c3ccc(C(F)(F)F)cc3)c2c1)c1ccc(F)cc1` [Example 4, N-(4-fluorophenyl)-N-methyl-3-(4-(trifluoromethyl)phenyl)pyrazolo[1,5-a]pyridine-5-carboxamide], the figure is 46 nM; as for `CN(C(=O)c1ccc(C(F)(F)F)cn1)c1ccn2ncc(-c3ccc(C(F)(F)F)cc3)c2c1` [Example 38, N-methyl-5-(trifluoromethyl)-N-(3-(4-(trifluoromethyl)phenyl)pyrazolo[1,5-a]pyridine-5-yl)picolinamide], 179 nM; as for `CN(C(=O)c1ccc(S(C)(=O)=O)cc1)c1ccn2ncc(-c3ccc(C(F)(F)F)cc3)c2c1` [Example 52, N-methyl-4-(methylsulfonyl)-N-(3-(4-(trifluoromethyl)phenyl)pyrazolo[1,5-a]pyridin-5-yl)benzamide], 13 nM.

With `CN(C(=O)c1ccc(C(F)(F)F)nc1)c1ccn2ncc(-c3ccc(C(F)(F)F)cc3)c2c1` [Example 37, N-methyl-6-(trifluoromethyl)-N-(3-(4-(trifluoromethyl)phenyl)pyrazolo[1,5-a]pyridine-5-yl)nicotinamide], the EC50 is 121 nM. The result for `COCCN(C(=O)c1ccn2ncc(-c3ccc(C(F)(F)F)cc3)c2c1)c1ccc(C#N)cc1` [Example 9, N-(4-cyanophenyl)-N-(2-methoxyethyl)-3-(4-(trifluoromethyl)phenyl)pyrazolo[1,5-a]pyridine-5-carboxamide] reads 6 nM; that for `CN(C(=O)c1ccc(C2CC2)nc1)c1ccn2ncc(-c3ccc(C(F)(F)F)cc3)c2c1` [Example 49, 6-cyclopropyl-N-methyl-N-(3-(4-(trifluoromethyl)phenyl)pyrazolo[1,5-a]pyridin-5-yl)nicotinamide], 2290 nM.

Values taken from patent US8871754B2, “Compounds and compositions for the treatment of parasitic diseases” (IRM LLC, priority 2012, dated 2014).
